Values quoted from earlier work in paper PMC12808597, “Spatially diffuse cAMP signalling with oppositely biased GLP-1 receptor agonists in β-cells despite differences in receptor localisation” (Molecular Metabolism, 2025).
No end group written: not given here.

How the values were obtained:
GLP-1R [1] = conditions: ref [12]
Text: GPCR signalling localisation is now a major area of research interest. Inherent to this phenomenon is the assumption that signalling responses are subject to tight spatial control, for example in the form of sharp cAMP concentration gradients close to the site of generation. Indeed, this has been reported when comparing GLP-1-induced cAMP responses at different plasma membrane nanodomains in HEK293 cells with overexpressed GLP-1R [12]. This contrasts somewhat with the current work in which cAMP was rapidly detected at intracellular locations distant from the activated GLP-1R in β-cell ...

GLP-1R [2] = conditions: ref [6],[26]
Text: In this context, interest has emerged in GLP-1R agonist ligands (GLP-1RAs) showing distinct trafficking profiles, which could lead to altered signalling from intracellular locations [[14], [15], [16]], as has been extensively noted for other GPCRs [[17], [18], [19]].

HEK293 cells = conditions: ref [16]
Text: (§1) In this work we relied on agonist-specific patterns of internalisation to provide selective endosomal or plasma membrane localisation of active GLP-1R. Alternative approaches include pharmacological or genetic inhibition of receptor internalisation, for example the small molecule dynamin inhibitor dyngo4A [55] or overexpression of dominant negative dynamin K44 mutants, both of which have been used to probe the importance of GLP-1R internalisation on its signalling responses.

BRIN-BD11 clonal β-cells = conditions: ref [5]
Text: as §1

rodent systems = conditions: no reference given

GLP-1: GLP-1, as used in Anton et al. [12] (HAEGTFTSDVSSYLEGQAAKEFIAWLVKGR; ends and bridges not checked; UniProt P01275 98-127, looked up)
cAMP at GLP-1R nanodomain (GLP-1R [1]; GLP-1 1 pM): cAMP increases within 60 nm of the GLP-1R in HEK293 cells without changes to whole cell or overall plasma membrane cAMP | cAMP gradient at GLP-1R nanodomain (GLP-1R [1]; GLP-1 1 nM and 100 nM): no such gradient was seen

AMG133: GLP-1RA/GIPR antagonistic antibody
GLP-1R-mediated delivery to early endosomes (GLP-1R [2]): enhanced GLP-1R-mediated delivery to early endosomes

O=C(N/N=C/c1cc(O)c(O)cc1O)c1cc2ccccc2cc1O [dyngo4a]
Effect on GLP-1RA signalling responses (HEK293 cells): broad inhibition of GLP-1RA signalling responses

O=C(N/N=C/c1ccc(O)c(O)c1)c1cc2ccccc2cc1O [dynasore]
Effect on exendin-4-induced cAMP production (BRIN-BD11 clonal β-cells): reduced exendin-4-induced cAMP production

Cc1cc(-n2nc3c(c2-n2ccn(-c4ccc5c(cnn5C)c4F)c2=O)[C@H](C)N(C(=O)c2cc4cc([C@H]5CCOC(C)(C)C5)ccc4n2[C@@]2(c4noc(=O)[nH]4)C[C@@H]2C)CC3)cc(C)c1F [orforglipron]
Activity in rodent systems (rodent systems): inactive
